According to PubChem BioAssay (NCI):
Several values for one entry are separate records, joined by “and”; a condition that tells them apart may be missing. Equal entries are not always repeated.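 Method: 48-hour compound exposure of cells in 96-well plates, five concentrations, linear interpolation of endpoints. The concentration for 50% growth inhibition is given as GI50. TGI: total growth inhibition.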

Columns and labels:
Experiment in all cases: NCI anticancer screen, dose series, 48 h
[1] = test system: A549 NSCLC
[2] = test system: HCC-2998 colon
[3] = test system: K-562 leukemia
[4] = test system: LOX IMVI melanoma
[5] = test system: NCI-H522 lung
[6] = test system: OVCAR-5 ovarian
[7] = test system: OVCAR-8 ovarian
[8] = test system: SF-268 CNS
[9] = test system: SN12C renal
[10] = test system: UACC-62 melanoma

SMILES	TGI [1] [µM]	TGI [2] [µM]	TGI [3] [µM]	TGI [4] [µM]	TGI [5] [µM]	TGI [6] [µM]	TGI [7] [µM]	TGI [8] [µM]	TGI [9] [µM]	TGI [10] [µM]	GI50 [1] [µM]	GI50 [2] [µM]	GI50 [3] [µM]	GI50 [4]	GI50 [5] [µM]	GI50 [6] [µM]	GI50 [7] [µM]	GI50 [8] [µM]	GI50 [9] [µM]	GI50 [10] [µM]
COc1ccc(S(=O)(=O)Nc2ccc(-c3csc(N4C(=O)/C(=C/c5cccs5)N=C4c4ccccc4)n3)cc2)cc1Cl	> 100	> 100	> 100	> 100	62.8	> 100	> 100	> 100	> 100	> 100	–	–	–	–	–	–	–	–	–	–
CCCCCCCCCC[N+](C)(C)C	8.43	3.53	7.82	2.95	5.11	3.89	5.53	5.77	8.66	4.59	2.52	1.58	1.82	1.41 µM	1.7	1.05	1.83	1.98	2.95	1.69
COc1ccc(OCC(C)(C)O)cc1	> 100	> 100	> 100	> 100	–	> 100	> 100	> 100	> 100	> 100	–	–	–	–	–	–	–	–	–	–
COc1ccc2c(c1)c(=O)c1c(NCCCN(C)C)ccc3ncn2c31	14.5	9.86	> 56.1	4.86	21.4	25.5	9.4	16.1	18.9	28.7	–	–	–	–	–	–	–	–	–	–
CCOC(=O)/C=C/c1c[nH]c(=O)[nH]c1=O	> 75	> 75	> 75	> 75	> 75	> 75	> 75	> 75	> 75	> 75	–	–	–	–	–	–	–	–	–	–
COC1C(OC(C)=O)CC(=O)OC(C)C/C=C/C=C\C(O)C(C)CC(CC=O)C1OC1OC(C)C(OC2CC(C)(O)C(OC(=O)CC(C)C)C(C)O2)C(N(C)C)C1O (stereo not given)	> 100	> 100	> 100	> 100	> 100	> 100	> 100	> 100	> 100	> 100	–	–	–	41.4 µM and > 100 µM	–	–	–	–	–	–
c1ccc(N2N=C3N(c4ccccc4)C2N3c2ccccc2)cc1	> 100	77.5	59.5	62.4	56.1	> 100	> 100	> 100	> 100	80.2	–	–	–	–	–	–	–	–	–	–
CCOC(=O)C1=C(C)N(C2OC(COC(C)=O)C(OC(C)=O)C(OC(C)=O)C2OC(C)=O)C(=O)NC1c1ccccc1 (stereo not given)	> 100	> 100	> 100	> 100	63.4	> 100	> 100	> 100	> 100	> 100	–	–	–	–	–	–	–	–	–	–
COc1c2occc2cc2ccc(=O)oc12	> 100	> 100	> 100	> 100	> 100	> 100	> 100	> 100	> 100	> 100	–	–	–	–	> 100	–	> 100	> 100	–	–
COc1ccc2c(c1)C=C(C(C)(C)C)NS2(=O)=O	> 100	> 100	> 100	> 100	> 100	> 100	> 100	> 100	> 100	> 100	–	–	–	–	–	–	–	–	–	–
C[C@]12CC/C(=N\O)C=C1CC[C@@H]1[C@@H]2CC[C@]2(C)C(=N/O)/C(=C/c3ccncc3)C[C@@H]12	> 100	59.7	> 100	> 100	99.2	> 100	> 100	> 100	> 100	35	–	–	–	–	–	–	–	–	–	–
CC1OC(OC2C[C@](O)(C(=O)CBr)Cc3c(O)c4c(c(O)c32)C(=O)c2ccccc2C4=O)C(F)C(O)C1O (stereo not given in full)	30	> 100	> 38.8	35.8	23.5	> 59.7	> 100	73.7	> 73.3	34.5	–	–	–	–	–	–	–	–	–	–
CC(=O)OCc1nnn2c1CCC2	> 100	> 100	> 100	> 100	> 100	> 100	> 100	–	> 100	> 100	–	–	–	–	–	–	–	–	–	–
CC(c1ccccc1)C(O)S(=O)(=O)O (stereo not given)	> 100	–	–	> 100	> 100	> 100	> 100	> 100	> 100	> 100	–	–	–	–	–	–	–	–	–	–
CCCCn1c(C)c2c(c1C)C(=O)N(CCN1CCN(c3ccccc3Cl)CC1)C2=O	> 100	72.5	92.1	30.1	78.7	> 100	> 100	32.4	61.3	> 100	–	–	–	–	–	–	–	–	–	–
